Test results reported in patent US20230157952A1, “METHOD FOR IMPROVING THE STABILITY OF A PHARMACEUTICAL COMPOSITION COMPRISING A HIGH PENETRATION DRUG, AND THE PHARMACEUTICAL COMPOSITION OBTAINED THEREFROM” (Techfields Inc., priority 2020, published 2023).

Test: Effect of temperature (and pH) on the stability of the solution (purity)
Format: physicochemical

CCN(CC)CCOC(=O)[C@H](C)c1ccc(CC(C)C)cc1.Cl
Purity (%) at day 21 (60° C.) (pH 1.02, 7% solution in water): 0% | Purity(%) at day 21 (5° C.) (pH 1.02, 7% solution in water): 93.1 ± 0.3% | Purity(%) at day 21 (25° C.) (pH 1.02, 7% solution in water): 70.7 ± 0.4% | Purity(%) at day 21 (40° C.) (pH 1.02, 7% solution in water): 18.5 ± 0.3% | Purity (%) at day 21 (60° C.) (pH 2.09, 7% solution in water): 0% | Purity(%) at day 21 (5° C.) (pH 2.09, 7% solution in water): 97.0 ± 0.4% | Purity(%) at day 21 (25° C.) (pH 2.09, 7% solution in water): 86.0 ± 0.4% | Purity(%) at day 21 (40° C.) (pH 2.09, 7% solution in water): 30.6 ± 0.4% | Purity (%) at day 21 (60° C.) (pH 3.01, 7% solution in water): 8.4 ± 0.3% | Purity(%) at day 21 (25° C.) (pH 3.01, 7% solution in water): 96.1 ± 0.3% | Purity(%) at day 21 (40° C.) (pH 3.01, 7% solution in water): 56.1 ± 0.4% | Purity (%) at day 21 (60° C.) (pH 3.68, 7% solution in water): 16.0 ± 0.4% | Purity(%) at day 21 (40° C.) (pH 3.68, 7% solution in water): 64.1 ± 0.5% | Purity (%) at day 21 (60° C.) (pH 4.07, 7% solution in water): 22.7 ± 0.4% | Purity(%) at day 21 (40° C.) (pH 4.07, 7% solution in water): 72.6 ± 0.4% | Purity (%) at day 21 (60° C.) (pH 4.35, 7% solution in water): 18.3 ± 0.3% | Purity(%) at day 21 (40° C.) (pH 4.35, 7% solution in water): 72.6 ± 0.5% | Purity (%) at day 21 (60° C.) (pH 4.67, 7% solution in water): 10.4 ± 0.5% | Purity(%) at day 21 (25° C.) (pH 4.67, 7% solution in water): 97.5 ± 0.4% | Purity(%) at day 21 (40° C.) (pH 4.67, 7% solution in water): 58.3 ± 0.4% | Purity (%) at day 21 (60° C.) (pH 4.96, 7% solution in water): 4.0 ± 0.3% | Purity(%) at day 21 (5° C.) (pH 4.96, 7% solution in water): 97.0 ± 0.4% | Purity(%) at day 21 (25° C.) (pH 4.96, 7% solution in water): 95.1 ± 0.4% | Purity(%) at day 21 (40° C.) (pH 4.96, 7% solution in water): 50.5 ± 0.5% | Purity (%) at day 21 (60° C.) (pH 5.98, 7% solution in water): 0% | Purity(%) at day 21 (5° C.) (pH 5.98, 7% solution in water): 95.8 ± 0.4% | Purity(%) at day 21 (25° C.) (pH 5.98, 7% solution in water): 90.2 ± 0.4% | Purity(%) at day 21 (40° C.) (pH 5.98, 7% solution in water): 29.9 ± 0.4% | Purity (%) at day 21 (60° C.) (pH 6.99, 7% solution in water): 0% | Purity(%) at day 21 (5° C.) (pH 6.99, 7% solution in water): 90.0 ± 0.5% | Purity(%) at day 21 (25° C.) (pH 6.99, 7% solution in water): 77.1 ± 0.4% | Purity(%) at day 21 (40° C.) (pH 6.99, 7% solution in water): 19.9 ± 0.4% | Purity (%) at day 21 (60° C.) (pH 8.01, 7% solution in water): 0% | Purity(%) at day 0 (pH 8.01, 7% solution in water): 97.6 ± 0.5% | Purity(%) at day 21 (5° C.) (pH 8.01, 7% solution in water): 81.1 ± 0.5% | Purity(%) at day 21 (25° C.) (pH 8.01, 7% solution in water): 52.3 ± 0.4% | Purity(%) at day 21 (40° C.) (pH 8.01, 7% solution in water): 0%

CCN(CC)CCOC(=O)C(C)c1ccc(-c2ccccc2)c(F)c1.Cl (racemic)
Purity(%) at day 21 (5° C.) (7% solution in water, pH 1.0, day 21, 5° C.): 94.0 ± 0.3% | Purity(%) at day 21 (25° C.) (7% solution in water, pH 1.0, day 21, 25° C.): 72.0 ± 0.3% | Purity(%) at day 21 (40° C.) (7% solution in water, pH 1.0, day 21, 40° C.): 18.5 ± 0.3% | Purity (%) at day 21 (60° C.) (7% solution in water, pH 1.0, day 21, 60° C.): 0% | Purity(%) at day 21 (25° C.) (7% solution in water, pH 2.0, day 21, 25° C.): 86.1 ± 0.3% | Purity(%) at day 21 (40° C.) (7% solution in water, pH 2.0, day 21, 40° C.): 30.1 ± 0.4% | Purity (%) at day 21 (60° C.) (7% solution in water, pH 2.0, day 21, 60° C.): 0% | Purity(%) at day 21 (25° C.) (7% solution in water, pH 3.0, day 21, 25° C.): 96.0 ± 0.2% | Purity(%) at day 21 (40° C.) (7% solution in water, pH 3.0, day 21, 40° C.): 56.5 ± 0.3% | Purity (%) at day 21 (60° C.) (7% solution in water, pH 3.0, day 21, 60° C.): 8.7 ± 0.3% | Purity(%) at day 21 (25° C.) (7% solution in water, pH 3.7, day 21, 25° C.): 97.5 ± 0.1% | Purity(%) at day 21 (40° C.) (7% solution in water, pH 3.7, day 21, 40° C.): 64.5 ± 0.3% | Purity (%) at day 21 (60° C.) (7% solution in water, pH 3.7, day 21, 60° C.): 16.2 ± 0.3% | Purity(%) at day 21 (40° C.) (7% solution in water, pH 4.0, day 21, 40° C.): 72.3 ± 0.3% | Purity (%) at day 21 (60° C.) (7% solution in water, pH 4.0, day 21, 60° C.): 22.4 ± 0.3% | Purity(%) at day 21 (40° C.) (7% solution in water, pH 4.3, day 21, 40° C.): 72.2 ± 0.3% | Purity (%) at day 21 (60° C.) (7% solution in water, pH 4.3, day 21, 60° C.): 18.3 ± 0.2% | Purity(%) at day 21 (40° C.) (7% solution in water, pH 4.6, day 21, 40° C.): 58.1 ± 0.4% | Purity (%) at day 21 (60° C.) (7% solution in water, pH 4.6, day 21, 60° C.): 10.4 ± 0.3% | Purity(%) at day 21 (5° C.) (7% solution in water, pH 5.0, day 21, 5° C.): 97.6 ± 0.2% | Purity(%) at day 21 (25° C.) (7% solution in water, pH 5.0, day 21, 25° C.): 96.7 ± 0.2% | Purity(%) at day 21 (40° C.) (7% solution in water, pH 5.0, day 21, 40° C.): 50.1 ± 0.3% | Purity (%) at day 21 (60° C.) (7% solution in water, pH 5.0, day 21, 60° C.): 3.0 ± 0.3% | Purity(%) at day 21 (5° C.) (7% solution in water, pH 6.0, day 21, 5° C.): 95.4 ± 0.2% | Purity(%) at day 21 (25° C.) (7% solution in water, pH 6.0, day 21, 25° C.): 90.5 ± 0.3% | Purity(%) at day 21 (40° C.) (7% solution in water, pH 6.0, day 21, 40° C.): 29.7 ± 0.4% | Purity (%) at day 21 (60° C.) (7% solution in water, pH 6.0, day 21, 60° C.): 0% | Purity(%) at day 21 (5° C.) (7% solution in water, pH 7.0, day 21, 5° C.): 89.7 ± 0.3% | Purity(%) at day 21 (25° C.) (7% solution in water, pH 7.0, day 21, 25° C.): 75.1 ± 0.3% | Purity(%) at day 21 (40° C.) (7% solution in water, pH 7.0, day 21, 40° C.): 19.8 ± 0.3% | Purity (%) at day 21 (60° C.) (7% solution in water, pH 7.0, day 21, 60° C.): 0% | Purity(%) at day 21 (5° C.) (7% solution in water, pH 8.0, day 21, 5° C.): 81.9 ± 0.3% | Purity(%) at day 21 (25° C.) (7% solution in water, pH 8.0, day 21, 25° C.): 52.8 ± 0.3% | Purity(%) at day 21 (40° C.) (7% solution in water, pH 8.0, day 21, 40° C.): 0% | Purity (%) at day 21 (60° C.) (7% solution in water, pH 8.0, day 21, 60° C.): 0%
